Assay results: patent publication US20080268041A1, “COMBINATION OF PROGESTERONE-RECEPTOR ANTAGONIST TOGETHER WITH NONE-STEROIDAL ANTIESTROGEN FOR USE IN BRCA MEDIATED DISEASES” (priority 2007, published 2008)

Experiments:
[1] = system: NMU-induced rat mammary carcinomas; experiment: NMU-induced mammary tumor model in female rats, 4 weeks treatment; assay type: in vivo, female Sprague-Dawley rats; details: for Median tumor weight: 1 mg/kg p.o. daily for 4 weeks (combination 1 + 1 mg/kg), of 10 animals, control 15200, ovariectomy 0; for Tumor growth inhibition compared to control (procentual change of tumor area): 1 mg/kg p.o. each, 4 weeks, Kruskal-Wallis-test
Protocol: Tumors were induced by a single intravenous injection of NMU (50 mg/kg) in female Sprague-Dawley rats (Tierzucht Schönwalde, age 50-55 days). Rats with at least one established tumor with a size of minimal 150 mm^2 were treated for 4 weeks by
1) Solvent control, 2) Ovariectomy (at treatment start), 3) The progesterone receptor antagonist 11β-(4-acetylphenyl)-17β-hydroxy-17α(1,1,2,2,2-pentafluoroethyl)-estra-4,9-dien-3-one, 1 mg/kg p.o., 4) Tamoxifen, 1 mg/kg p.o., 5) The progesterone receptor antagonist 11β-(4-acetylphenyl)-17β-hydroxy-17α(1,1,2,2,2-pentafluoroethyl)-estra-4,9-dien-3-one, 1 mg/kg p.o. and Tamoxifen, 1 mg/kg p.o. daily.
As parameter for growth inhibition the procentual change of tumor area determined by weekly caliper measurements was used. For statistical analysis of intergroup differences of mean values the Kruskal-Wallis-test was used.

progesterone receptor [2] = molecular target: T1, progesterone receptor (Homo sapiens, UniProt P06401); details: Fuhrmann et al., J. Med. Chem. 2000; cited from earlier work
T1 sequence (P06401 1-933): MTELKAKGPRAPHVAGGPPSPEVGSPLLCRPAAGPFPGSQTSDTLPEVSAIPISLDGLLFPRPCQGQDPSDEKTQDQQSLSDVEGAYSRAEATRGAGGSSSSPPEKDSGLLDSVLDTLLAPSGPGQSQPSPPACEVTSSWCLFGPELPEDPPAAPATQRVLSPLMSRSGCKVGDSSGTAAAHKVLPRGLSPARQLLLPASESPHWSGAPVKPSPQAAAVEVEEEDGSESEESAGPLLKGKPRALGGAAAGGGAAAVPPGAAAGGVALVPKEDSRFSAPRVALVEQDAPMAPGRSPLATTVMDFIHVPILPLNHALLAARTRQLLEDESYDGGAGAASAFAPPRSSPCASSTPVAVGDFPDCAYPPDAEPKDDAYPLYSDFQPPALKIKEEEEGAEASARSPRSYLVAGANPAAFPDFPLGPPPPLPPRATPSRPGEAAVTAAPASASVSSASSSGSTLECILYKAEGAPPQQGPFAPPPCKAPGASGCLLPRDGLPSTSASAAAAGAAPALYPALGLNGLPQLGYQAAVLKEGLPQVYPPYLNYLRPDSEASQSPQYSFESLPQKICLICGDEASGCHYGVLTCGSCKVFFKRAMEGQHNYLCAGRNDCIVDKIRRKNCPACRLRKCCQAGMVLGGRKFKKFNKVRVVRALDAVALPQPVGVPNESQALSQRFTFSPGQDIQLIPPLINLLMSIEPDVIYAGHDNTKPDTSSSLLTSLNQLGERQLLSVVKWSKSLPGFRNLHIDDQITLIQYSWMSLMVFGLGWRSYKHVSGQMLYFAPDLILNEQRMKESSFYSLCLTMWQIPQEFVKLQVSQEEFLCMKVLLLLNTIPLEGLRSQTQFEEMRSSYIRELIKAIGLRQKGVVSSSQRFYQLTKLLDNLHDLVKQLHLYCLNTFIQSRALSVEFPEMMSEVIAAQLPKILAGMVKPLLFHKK

[3] = system: MCF-10 mammary cells with BRCA1 and BRCA2 knock down; experiment: Growth of MCF-10 mammary cells with siRNA knock down of BRCA1 and BRCA2, stimulated with progesterone and/or estrogens; assay type: cell-based; details: co-treatment, in the presence of progesterone
Protocol: MCF-10 mammary cells obtained from ATCC were treated with siRNA knocking down the BRCA1 and BRCA2 gene.
(§1) Cell growth in comparison to untransfected and mock transfected cells was compared. In a second step cells were stimulated either with progesterone and/or with estrogens. […] The effects on progesterone receptor protein expression were further investigated.

progesterone receptor [4] = molecular target: T1, progesterone receptor; experiment: Progesterone receptor protein expression/stability after siRNA knock down of BRCA1; assay type: cell-based
Excerpt: as §1

[5] = system: Brca1/p53-deficient mice mammary tumors; details: BRCA1- or BRCA2 inactivated in mammary glands; Poole et al., Science 2006; cited from earlier work

Row | SMILES | Median tumor weight [1] [mg] | Tumor growth inhibition compared to control (procentual change of tumor area) [1] | Antiprogestagenic activity (progesterone receptor [2]) | Growth/proliferation of BRCA1 knock down cells [3] | Increased stability of progesterone receptor after BRCA1 knock down (progesterone receptor [4]) | Development of mammary tumors in mice [5]
1 | CC(=O)c1ccc([C@H]2C[C@@]3(C)[C@@H](CC[C@@]3(O)C(F)(F)C(F)(F)F)[C@@H]3CCC4=CC(=O)CCC4=C32)cc1 [11β-(4-acetylphenyl)-17β-hydroxy-17α-(1,1,2,2,2-pentafluoroethyl)-estra-4,9-dien-3-one] | 1800 | not significant different to the untreated control group | high antiprogestagenic activity | able to antagonize the effects of BRCA1 knock down | could be antagonized | 
2 | CC/C(=C(\c1ccccc1)c1ccc(OCCN(C)C)cc1)c1ccccc1 [Tamoxifen, reference compound] | 2950 | not significant different to the untreated control group |  |  |  | 
3 | CC#C[C@]1(O)CC[C@H]2[C@@H]3CCC4=CC(=O)CCC4=C3[C@@H](c3ccc(N(C)C)cc3)C[C@@]21C [mifepristone] |  |  |  |  |  | blocks the development of mammary tumors
